Data on 8 molecules can be found in patent publication US6605426B1, “Compounds, methods of screening, and in vitro and in vivo uses involving anti-apoptotic genes and anti-apoptotic gene products” (priority 1998, dated 2003).

Holding throughout (assay type): cell-based, human
The subject of one assay is MRC-5 cells. To be noted: for cell death of MRC-5 cells: within the first 24 h of exposure, anti-Fas and TNF-α only in the presence of CHX, phase microscope. The protocol: (§1) Tumor necrosis factor receptor 1 (TNF-R1)-mediated apoptosis was induced by exposure of HeLa and MRC-5 cells to tumor necrosis factor-α (TNF-α) (Sigma, 10-60 ng/mL)+CHX (10-30 μg/mL). Fas-mediated apoptosis was induced by exposure of cells to an anti-Fas antibody (Coulter, 7C11 antibody at 0.2-4 μg/mL)+CHX (10-30 μg/mL). The degree of cell death was determined by the visual scoring of surviving cells, in representative fields, under a phase microscope.
The time-course of apoptosis was also analyzed by examining the expression of phosphatidylserine on the cell surface, as detected with FITC-labeled Annexin V, and by a dye-exclusion test using propidium iodide. These two tests were performed with an ApoAlert Annexin V Apoptosis kit (Clontech) in accordance with the manufacturer's recommendations, on a flow cytometer (FACScan, Becton-Dickinson).
These experiments were performed on MRC-5, a normal human fibroblast cell line which can be productively infected by HCMV in cell culture. The present inventors first examined whether infection of cells with HCMV alters the cell's sensitivity to Fas- or TNF-R1-mediated apoptosis.

Assay [1] concerns HCMV-infected MRC-5 cells. As to the kind of experiment: Apoptosis resistance of HCMV-infected MRC-5 cells in presence of viral DNA polymerase inhibitors. The note with it: concentration sufficient to inhibit viral replication; challenge two days later with anti-Fas antibody+CHX or TNF-α+CHX. The source says:
To discriminate between these two mechanisms, MRC-5 cells were infected with HCMV in the presence (or absence) of inhibitors of viral DNA polymerase, such as phosphonacetic acid or gancyclovir (Huang, 1975; Crumpacker, 1996) which prevent the expression of the late genes of HCMV in the host cell (Mocarski, 1996).
MRC-5 cells uninfected (FIG. 3A) or infected with HCMV (FIG. 3B) were either untreated, or treated with either phosphonacetic acid or gancyclovir at a concentration sufficient to inhibit viral replication (Huang, 1975; Crumpacker, 1996). Two days later these cells were challenged with either anti-Fas antibody+CHX or TNF-α+CHX (FIGS. 3A and 3B). Although nearly all non-infected MRC-5 cells underwent apoptosis, irrespective of the presence or absence of phosphonacetic acid or gancyclovir, a major fraction of cells exposed to HCMV survived the challenge with the apoptotic stimuli in the absence of the viral DNA polymerase inhibitors. Further, a somewhat smaller but still large fraction of cells survived in the presence of the inhibitors. Thus, the insensitivity of HCMV-infected cells to apoptosis was not abolished by these drugs.

The subject of the next assay is HeLa cells. As to the kind of experiment: Transient transfection apoptosis assay in HeLa cells (anti-Fas antibody+CHX or TNF-α+CHX). To be noted: for protection of HeLa cells at very low plasmid concentration: 0.1% to 1% of the total DNA transfected, mixed with control vector, anti-Fas antibody+CHX; for β-gal levels after anti-Fas antibody+CHX treatment: plasmids diluted several hundred fold, β-gal marker plasmid. Here is the method:
as §1, with “microscope. A similar degree of cell death occurred in fibroblasts when examined 5 to 28 h after the start of exposure, or a similar degree of cell death occurred in HeLa cells when examined 9-28 h after the start of exposure. Further, a similar degree of cell death for a given reagent was produced when any concentration within the range indicated above was used.” for “microscope.”
The degree of cell death in cells transfected with an indicator plasmid expressing E. coli β-galactosidase was determined by either a β-galactosidase ELISA (Boehringer Mannheim), in accordance with the manufacturer's recommendations, or by visually scoring, under a microscope, positive blue cells, expressing β-galactosidase, after staining them with X-gal.
HeLa cells were transiently co-transfected with an expression plasmid vector, pME18S, carrying a polynucleotide sequence encoding IE1 or IE2 (FIG. 5, “IE1” and “IE2,” respectively), and a vector carrying the β-galactosidase gene (pCMVβ, Clontech). As a positive control, HeLa cells were transiently co-transfected with pCMVβ and a vector carrying a polynucleotide sequence encoding an anti-apoptotic polypeptide, such as the adenovirus E1B 19K or baculovirus p35.
Expression of IE1 (approx. 72 kDa) and IE2 (approx. 86 kDa) in the transfected HeLa cells was confirmed by Western blot analysis, by immunofluorescence visually examined under a fluorescence microscope, and by transactivation activity which led to an elevation of the vector-CMV-promoter-driven β-galactosidase expression which was increased 2- to 5-fold, as measured by a β-galactosidase ELISA (data not shown). Apoptosis was induced by incubating the transfected cells for 24 h with either TNF-α+CHX, or anti-Fas antibody+CHX. The surviving cells were stained with X-gal, a chromogenic substrate of β-galactosidase, and then the blue-stained cells were scored (FIG. 5).
To identify HCMV genes that can suppress apoptosis induced by Fas-ligation, the present inventors established a transient transfection assay in HeLa cells. The HeLa cells can be transfected at much higher efficiency than MRC-5 cells and are similar in their sensitivity towards anti-Fas antibody and TNF-α treatment. Enhanced survival of HeLa cells following anti-Fas antibody+CHX treatment was detected by elevated β-galactosidase (β-gal) levels produced by a transfected β-gal marker plasmid.
The deletion mutants were transiently expressed in HeLa cells, cultured in DMEM supplemented with 10% fetal bovine serum, and assayed for their ability to block Fas- or TNF-R1-mediated apoptosis. Transfections and apoptosis assays were performed as previously described (Goldmacher et al., 1999). Briefly, cells were transiently transfected with the expression vectors (purified with a Qiagen plasmid purification kit) using SuperFect transfection reagent (Qiagen) in accordance with the manufacturer's protocol. After 24 hours, cells were exposed to anti-Fas 7C11 antibody (Coulter, 0.5 μg/ml)+cyclohexamide (Sigma, 10 μg/ml) for 24 hours.
A genomic DNA library was cloned into pZeoSV2(+) plasmid (Invitrogen). Ten cosmids, pCM1007, pCM1015, pCM1017, pCM1029, pCM1035, pCM1039, pCM1040, pCM1052, pCM1058, and pCM1072, covering the AD169 genome (Fleckenstein et al., 1982, which is incorporated herein by reference), and pON2601 Toledo cosmid (Cha et al., 1996, which is incorporated herein by reference) containing unique HCMV sequences, were mixed in equal amounts and partially digested with Sau3AI (New England Biolabs, Beverly, Mass.). […]

Assay [2] relates to Fas-mediated apoptotic signaling in HeLa cells. The assay can be described thus: Western blot of Fas-mediated apoptotic signaling events in HeLa clones. The protocol:
Cells were trypsinized, washed in Tris buffered saline, resuspended in a lysis buffer (150 mM NaCl, 5 mM EDTA, 50 mM Tris.HCl pH 8.0, 1% Triton X-100), freshly supplemented with phenylmethylsulfonyl fluoride (0.1 mM), leupeptin ([…]) and pepstatin (1 μg/mL), incubated on ice for 30 minutes, and centrifuged at 16,000 g for 15 minutes, at 4° C. Cytochrome c and procaspase 9 were detected in S-1 00 fractions of cells (Li et al., 1997, which is incorporated herein by reference).
The intracellular polypeptides were detected by Western blot analysis. Samples containing protein were electrophoretically resolved under reduced conditions, on Laemmli SDS-PAGE (Novex), after equal amounts of protein were loaded per well of the gel, detected using a standard Western blot protocol and a luminol-based ECL Western Blotting system (Amersham). The following antibodies were used in the Western blot analysis: anti-human Bid C-20 (Santa Cruz Biotechnology), 5F7 anti-human caspase 8 (Upstate Biotechnology), C210 anti-PARP (Biomol), 7H8.2C12 anti-cytochrome c (Pharmigen), B40 anti-human caspase 9 (Pharmigen), FITC-anti-mouse IgG (Sigma), HRP-anti-mouse IgG-F, (Pierce), HRP-anti-mouse IgG2b (Boehringer Mannheim), HRP-anti-rabbit IgG, and HRP-anti-mouse Ig (Amersham).
The impact of pUL37S on biochemical events involved in Fas-mediated apoptosis was examined by comparing control HeLa/pcDNA3 cells, which are sensitive to anti-Fas antibody plus CHX, to HeLa clones expressing either pUL37S or cellular Bcl-xL, both of which are resistant to Fas-mediated apoptosis. Ligation of Fas triggers the recruitment and activation of caspase 8 through the adapter molecule FADD (Ashkenazi et al., 1998). This process was not impaired by pUL37S since pro-caspase 8 was processed in pUL37S-expressing cells similar to its processing in either Bcl-xL-expressing cells, or control cells within 4 h of the exposure to anti-Fas antibody plus CHX, but not CHX alone (FIG. 16A). Fas-signaling is connected to mitochondrial events in apoptosis through Bid, a pro-apoptotic BH3 polypeptide that is proteolyzed by caspase 8 and subsequently translocates to mitochondria where it triggers cytochrome c release (Li et al., 1998; Lu et al., 1998).

Residues, ends and D or L forms follow the SMILES beside them. *: point of attachment. Cbz = O=C(OCc1ccccc1)*; CH2F = FC*

Regarding `C[C@@H]1C[C@@H]([C@H](O)CC2CC(=O)NC(=O)C2)C(=O)[C@@H](C)C1` [CHX, Cycloheximide], in the assay on MRC-5 cells, the “cell death of MRC-5 cells” value was “did not kill cells”.

Consider `COC(=O)C[C@H](NC(=O)[C@H](C)NC(=O)[C@@H](NC(=O)OCc1ccccc1)C(C)C)C(=O)CF` [Z-VADfmk] (Cbz-Val-Ala-Asp(OMe)-CH2F), for which the “effect on Fas- and TNF-R1-mediated MRC-5 cell death” value with MRC-5 cells (caspase inhibitor added with anti-Fas antibody or TNF-α +CHX) is given as “prevented”. For the molecule `Nc1nc(O)c2ncn(COC(CO)CO)c2n1` [gancyclovir], in assay [1], the “effect on insensitivity of HCMV-infected cells to apoptosis” value is “not abolished”. Turning to `O=C(O)CP(=O)(O)O` [phosphonacetic acid], the “effect on insensitivity of HCMV-infected cells to apoptosis” value in assay [1] is listed as “not abolished”. As for “Bcl-2: human anti-apoptotic gene product”, in the assay on HeLa cells, the “protection of HeLa cells at very low plasmid concentration” value (“protection of HeLa cells” below) was “detectable protection”. For the molecule “Bcl-xL: human cellular anti-apoptotic polypeptide”, in assay [2] (4 h anti-Fas antibody plus CHX), the “cleavage of PARP” value was “inhibited”, the cytochrome c release result was “not observed” and the “processing of procaspase 9” value was “inhibited”. Besides, in assay [2] (within 4 h of anti-Fas antibody plus CHX), the “processing of pro-caspase 8” value is given as “processed”. In the assay on HeLa cells, the “protection of HeLa cells” value was “detectable protection” and the “β-gal levels after anti-Fas antibody+CHX treatment” value is on record as “enhanced β-gal levels”. For TNF-α, the “cell death of MRC-5 cells” value with MRC-5 cells is given as “died”.

B1: p35: baculovirus anti-apoptotic polypeptide, positive control (protein, UniProt P08160 1-299, looked up)
Early 35 kDa protein: MCVIFPVEIDVSQTIIRDCQVDKQTRELVYINKIMNTQLTKPVLMMFNISGPIRSVTRKNNNLRDRIKSKVDEQFDQLERDYSDQMDGFHDSIKYFKDEHYSVSCQNGSVLKSKFAKILKSHDYTDKKSIEAYEKYCLPKLVDERNDYYVAVCVLKPGFENGSNQVLSFEYNPIGNKVIVPFAHEINDTGLYEYDVVAYVDSVQFDGEQFEEFVQSLILPSSFKNSEKVLYYNEASKNKSMIYKALEFTTESSWGKSEKYNWKIFCNGFIYDKKSKVLYVKLHNVTSALNKNVILNTIK
In the case of B1, in the assay on HeLa cells, the “protection of HeLa cells” value was “detectable protection” and the “β-gal levels after anti-Fas antibody+CHX treatment” value is given as “enhanced β-gal levels”. The “survival of transfected cells after apoptosis induction” value in the assay with HeLa cells (HeLa cells, 24 h with either TNF-α+CHX or anti-Fas antibody+CHX, X-gal stained cells scored) was “survived”.
